Test results reported in patent US8343963B2, “Sulfamoyl-phenyl-ureido compounds and their use as medicament” (4SC AG, priority 2009, dated 2013).

System: multiresistant Dd2 strain of Plasmodium falciparum
Experiment: Antiplasmodial activity against Dd2 strain of Plasmodium falciparum ([8-3H]hypoxanthine incorporation)
Assay type: cell-based
Details: 66 h, P. falciparum Dd2, 48 h + 18 h with [8-3H]hypoxanthine, 50% parasite growth inhibition, read-out: Antiplasmodia activity (IC50 class)
Method: For the determination of the antiplasmodial activity of the compounds described above, the multiresistant Dd2 strain of Plasmodium falciparum was used. The incorporation of [8-^3H]hypoxanthine into the parasitic nucleic acids was measured. The plasmodia were incubated at 0.3% parasitaemia and an erythrocyte haematocrit of 2.5% in the presence of different concentrations of the compounds in a final volume of 200 μl. The medium employed was RPMI 1640 which contained 10% of heat-treated human serum and 3 mg/l of gentamycin. In the incubations, the concentrations of the compounds varied from 0.001 to 100 μM. After 48 h, each batch was treated with 50 μl of [8-^3H]hypoxanthine (1 mCi/ml) and incubated for a further 18 h. The cells were filtered off, washed and suspended in 20 μl of scintillation fluid. The radioactive hypoxanthine absorbed by the parasites was then quantified using a scintillation counter. The results were presented graphically and the IC50 value was determined using a fitting function. The value IC50, the ‘inhibition constant’, indicates the value in μMol/l at which 50% parasite growth inhibition occurs (R. E. Desjardins, et al., Antimicrobiol. Agent Chemother. 16, pp. 710-718, 1979; J. D. Chulay, et al., Exp. Parasitol. 55, pp. 138-146, 1983).

Q: Which IC50 does the source give for `N=C(c1cccc(NC(=O)Nc2ccc(S(N)(=O)=O)cc2)c1)N1CCC(O)CC1` [Compound 2, 4-(3-(3-((4-hydroxypiperidin-1-yl)(imino)methyl)phenyl)ureido)benzenesulfonamide] here?
A: ≥ 1 µM

Q: How did the IC50 turn out when `N=C(c1cccc(NC(=O)Nc2ccc(S(N)(=O)=O)cc2)c1)N1CCNCC1` [Compound 3, 4-(3-(3-(imino(piperazin-1-yl)methyl)phenyl)ureido)benzenesulfonamide] was run?
A: ≥ 1 µM

Q: With `CCCCN1CCN(C(=N)c2cccc(NC(=O)Nc3ccc(S(=O)(=O)c4ccc(Br)cc4)cc3)c2)CC1` [Compound 4, 1-(4-(4-bromophenylsulfonyl)phenyl)-3-(3-((4-butylpiperazin-1-yl)(imino)methyl)phenyl)urea] as the compound, how does the IC50 read?
A: 0.21 to 0.99 µM

Q: Which IC50 does the source give for `N=C(c1cccc(NC(=O)Nc2ccc(S(=O)(=O)c3ccc(Br)cc3)cc2)c1)N1CCC(O)CC1` [Compound 5, 1-(4-(4-bromophenylsulfonyl)phenyl)-3-(3-((4-hydroxypiperidin-1-yl)(imino)methyl)phenyl)urea] here?
A: 0.02 to 0.2 µM

Q: With `N=C(c1cccc(NC(=O)Nc2ccc(S(=O)(=O)c3ccc([N+](=O)[O-])cc3)cc2)c1)N1CCOCC1` [Compound 6, 1-(3-(imino(morpholino)methyl)phenyl)-3-(4-(4-nitrophenylsulfonyl)phenyl)urea] as the compound, how does the IC50 read?
A: 0.02 to 0.2 µM

Q: `N=C(c1cccc(NC(=O)Nc2ccc(S(=O)(=O)c3ccc([N+](=O)[O-])cc3)cc2)c1)N1CCCC1` [Compound 7, 1-(3-(imino(pyrrolidin-1-yl)methyl)phenyl)-3-(4-(4-nitrophenylsulfonyl)phenyl)urea] was tested. Which IC50 did it give?
A: 0.02 to 0.2 µM

Q: Which IC50 does the source give for `CN1CCN(C(=N)c2cccc(NC(=O)Nc3ccc(S(=O)(=O)c4ccc([N+](=O)[O-])cc4)cc3)c2)CC1` [Compound 8, 1-(3-(imino(4-methylpiperazin-1-yl)methyl)phenyl)-3-(4-(4-nitrophenylsulfonyl)phenyl)urea] here?
A: ≥ 1 µM

Q: How did the IC50 turn out when `N=C(c1cccc(NC(=O)Nc2ccc(S(=O)(=O)c3ccc([N+](=O)[O-])cc3)cc2)c1)N1CCSC1` [Compound 9, 1-(3-(imino(thiazolidin-3-yl)methyl)phenyl)-3-(4-(4-nitrophenylsulfonyl)phenyl)urea] was run?
A: ≥ 1 µM

Q: How did the IC50 turn out when `N=C(c1cccc(NC(=O)Nc2ccc(S(=O)(=O)c3ccc([N+](=O)[O-])cc3)cc2)c1)N1CCC(O)CC1` [Compound 10, 1-(3-((4-hydroxypiperidin-1-yl)(imino)methyl)phenyl)-3-(4-(4-nitrophenylsulfonyl)phenyl)urea] was run?
A: 0.02 to 0.2 µM

Q: How did the IC50 turn out when `N=C(c1cccc(NC(=O)Nc2ccc(S(=O)(=O)c3ccc(Cl)cc3)cc2)c1)N1CCC(O)CC1` [Compound 11, 1-(4-(4-chlorophenylsulfonyl)phenyl)-3-(3-((4-hydroxypiperidin-1-yl)(imino)methyl)phenyl)urea] was run?
A: 0.02 to 0.2 µM

Q: Which IC50 does the source give for `N=C(c1cccc(NC(=O)Nc2ccc(S(=O)(=O)c3ccc(Br)cc3)cc2)c1)N1CCC(CO)CC1` [Compound 12, 1-(4-(4-bromophenylsulfonyl)phenyl)-3-(3-((4-(hydroxymethyl)piperidin-1-yl)(imino)methyl)phenyl)urea] here?
A: ≥ 1 µM

Q: `COCCN(CCOC)C(=N)c1cccc(NC(=O)Nc2ccc(S(=O)(=O)c3ccc(Br)cc3)cc2)c1` [Compound 13, 3-(3-(4-(4-bromophenylsulfonyl)phenyl)ureido)-N,N-bis(2-methoxyethyl)benzimidamide] was tested. Which IC50 did it give?
A: ≥ 1 µM

Q: Which IC50 does the source give for `N=C(c1cccc(NC(=O)Nc2ccc(S(=O)(=O)c3ccc(Br)cc3)cc2)c1)N1CCSCC1` [Compound 14, 1-(4-(4-bromophenylsulfonyl)phenyl)-3-(3-(imino(thiomorpholino)methyl)phenyl)urea] here?
A: 0.02 to 0.2 µM

Q: For `N=C(c1cccc(NC(=O)Nc2ccc(S(=O)(=O)c3ccc(Br)cc3)cc2)c1)N1CCCC1` [Compound 15, 1-(4-(4-bromophenylsulfonyl)phenyl)-3-(3-(imino(pyrrolidin-1-yl)methyl)phenyl)urea], which IC50 is on record?
A: 0.02 to 0.2 µM

Q: With `N=C(c1cccc(NC(=O)Nc2ccc(S(=O)(=O)c3ccc(Br)cc3)cc2)c1)N1CCC(C(N)=O)CC1` [Compound 16, 1-((3-(3-(4-(4-bromophenylsulfonyl)phenyl)ureido)phenyl)(imino)methyl)piperidine-4-carboxamide] as the compound, how does the IC50 read?
A: 0.02 to 0.2 µM

Q: Which IC50 does the source give for `N=C(c1cccc(NC(=O)Nc2ccc(S(=O)(=O)c3ccc(N)cc3)cc2)c1)N1CCC(O)CC1` [Compound 17, 1-(4-(4-aminophenylsulfonyl)phenyl)-3-(3-((4-hydroxypiperidin-1-yl)(imino)methyl)phenyl)urea] here?
A: ≥ 1 µM

Q: How did the IC50 turn out when `CCCCN1CCN(C(=N)c2cccc(NC(=O)Nc3ccc(S(=O)(=O)NC)cc3)c2)CC1` [Compound 18, 4-(3-(3-((4-butylpiperazin-1-yl)(imino)methyl)phenyl)ureido)-N-methylbenzenesulfonamide] was run?
A: ≥ 1 µM

Q: Which IC50 does the source give for `CCCCN1CCN(C(=N)c2cccc(NC(=O)Nc3ccc(S(=O)(=O)NCCC)cc3)c2)CC1` [Compound 19, 4-(3-(3-((4-butylpiperazin-1-yl)(imino)methyl)phenyl)ureido)-N-propylbenzenesulfonamide] here?
A: ≥ 1 µM

Q: `CCCCN1CCN(C(=N)c2cccc(NC(=O)Nc3ccc(S(=O)(=O)N(CCO)CCO)cc3)c2)CC1` [Compound 20, 4-(3-(3-((4-butylpiperazin-1-yl)(imino)methyl)phenyl)ureido)-N,N-bis(2-hydroxyethyl)benzenesulfonamide] was tested. Which IC50 did it give?
A: ≥ 1 µM

Q: `CCCCN1CCN(C(=N)c2cccc(NC(=O)Nc3ccc(S(=O)(=O)N4CCOCC4)cc3)c2)CC1` [Compound 21, 1-(3-((4-butylpiperazin-1-yl)(imino)methyl)phenyl)-3-(4-(morpholinosulfonyl)phenyl)urea] was tested. Which IC50 did it give?
A: ≥ 1 µM

Q: With `CCCCN1CCN(C(=N)c2cccc(NC(=O)Nc3ccc(S(=O)(=O)Nc4ccnc5cc(Cl)ccc45)cc3)c2)CC1` [Compound 22, 4-(3-(3-((4-butylpiperazin-1-yl)(imino)methyl)phenyl)ureido)-N-(7-chloroquinolin-4-yl)benzenesulfonamide] as the compound, how does the IC50 read?
A: ≥ 1 µM

Q: With `COC(=O)N1CCN(C(=N)c2cccc(NC(=O)Nc3ccc(S(=O)(=O)Nc4ccc(S(N)(=O)=O)cc4)cc3)c2)CC1` [Compound 24, methyl 4-(imino(3-(3-(4-(N-(4-sulfamoylphenyl)sulfamoyl)phenyl)ureido)phenyl)methyl)piperazine-1-carboxylate] as the compound, how does the IC50 read?
A: ≥ 1 µM

Q: With `N=C(c1cccc(NC(=O)Nc2ccc(S(=O)(=O)Nc3ccc(S(N)(=O)=O)cc3)cc2)c1)N1CCOCC1` [Compound 25, 4-(3-(3-(imino(morpholino)methyl)phenyl)ureido)-N-(4-sulfamoylphenyl)benzenesulfonamide] as the compound, how does the IC50 read?
A: ≥ 1 µM

Q: For `CN1CCN(C(=N)c2cccc(NC(=O)Nc3ccc(S(=O)(=O)Nc4ccc(S(N)(=O)=O)cc4)cc3)c2)CC1` [Compound 26, 4-(3-(3-(imino(4-methylpiperazin-1-yl)methyl)phenyl)ureido)-N-(4-sulfamoylphenyl)benzenesulfonamide], which IC50 is on record?
A: ≥ 1 µM

Q: For `N=C(c1cccc(NC(=O)Nc2ccc(S(=O)(=O)NCc3ccc(S(N)(=O)=O)cc3)cc2)c1)N1CCC(=O)CC1` [Compound 27, 4-(3-(3-(imino(4-oxopiperidin-1-yl)methyl)phenyl)ureido)-N-(4-sulfamoylbenzyl)benzenesulfonamide], which IC50 is on record?
A: 0.21 to 0.99 µM

Q: `N=C(c1cccc(NC(=O)Nc2ccc(S(=O)(=O)NCc3ccc(S(N)(=O)=O)cc3)cc2)c1)N1CCN(CCO)CC1` [Compound 28, 4-(3-(3-((4-(2-hydroxyethyl)piperazin-1-yl)(imino)methyl)phenyl)ureido)-N-(4-sulfamoylbenzyl)benzenesulfonamide] was tested. Which IC50 did it give?
A: 0.02 to 0.2 µM

Q: For `N=C(c1cccc(NC(=O)Nc2ccc(S(=O)(=O)NCc3ccc(S(N)(=O)=O)cc3)cc2)c1)N1CCC(CO)CC1` [Compound 29, 4-(3-(3-((4-(hydroxymethyl)piperidin-1-yl)(imino)methyl)phenyl)ureido)-N-(4-sulfamoylbenzyl)benzenesulfonamide], which IC50 is on record?
A: 0.21 to 0.99 µM

Q: For `CCN(CCO)C(=N)c1cccc(NC(=O)Nc2ccc(S(=O)(=O)NCc3ccc(S(N)(=O)=O)cc3)cc2)c1` [Compound 30, N-ethyl-N-(2-hydroxyethyl)-3-(3-(4-(N-(4-sulfamoylbenzyl)sulfamoyl)phenyl)ureido)benzimidamide], which IC50 is on record?
A: 0.21 to 0.99 µM

Q: How did the IC50 turn out when `N=C(c1cccc(NC(=O)Nc2ccc(S(=O)(=O)NCc3ccc(S(N)(=O)=O)cc3)cc2)c1)N1CCSCC1` [Compound 31, 4-(3-(3-(imino(thiomorpholino)methyl)phenyl)ureido)-N-(4-sulfamoylbenzyl)benzenesulfonamide] was run?
A: 0.21 to 0.99 µM

Q: For `COCCN(CCOC)C(=N)c1cccc(NC(=O)Nc2ccc(S(=O)(=O)NCc3ccc(S(N)(=O)=O)cc3)cc2)c1` [Compound 32, N,N-bis(2-methoxyethyl)-3-(3-(4-(N-(4-sulfamoylbenzyl)sulfamoyl)phenyl)ureido)benzimidamide], which IC50 is on record?
A: 0.21 to 0.99 µM

Q: `N=C(c1cccc(NC(=O)Nc2ccc(S(=O)(=O)NCc3ccc(S(N)(=O)=O)cc3)cc2)c1)N1CCC(C(N)=O)CC1` [Compound 33, 1-(imino(3-(3-(4-(N-(4-sulfamoylbenzyl)sulfamoyl)-phenyl)ureido)phenyl)methyl)piperidine-4-carboxamide] was tested. Which IC50 did it give?
A: 0.02 to 0.2 µM

Q: With `CCCCN1CCN(C(=N)c2cccc(NC(=O)Nc3ccc(S(=O)(=O)NCc4c(F)ccc(F)c4F)cc3)c2)CC1` [Compound 35, 4-(3-(3-((4-butylpiperazin-1-yl)(imino)methyl)phenyl)ureido)-N-(2,3,6-trifluorobenzyl)benzenesulfonamide] as the compound, how does the IC50 read?
A: 0.21 to 0.99 µM
